Measurements as given in PubChem BioAssay AID2253 (Southern Research Specialized Biocontainment Screening …, 2010).
pEC50: −log10 of the molar value.

Test system: THP-1 viability, CellTiter-Glo luminescence, 72 h
Test: human monocytic cell viability reduction – S. typhimurium screen hits, cytotoxicity control for Salmonella PhoP regulon inhibitors, dose response (AID 2253)

SMILES	pEC50
O=C(N/N=C/c1cc([N+](=O)[O-])ccc1O)C1CC1	4.58
O=C(N/N=C/c1ccc([N+](=O)[O-])s1)C(O)c1ccccc1 (centres undefined)	4.92
CCOc1ccc(CNc2ccc(N3CCCC3)cc2)cc1	4.93
COc1cc([N+](=O)[O-])cc(/C=N\NC(=O)C2COc3ccccc3O2)c1O (centres undefined)	4.71
COc1ccccc1-c1cc(C(=O)Nc2cc(C)nn2-c2ccccc2)no1	4.59
Cc1cc(Nc2ccccc2)nc2cc(O)ccc12	4.44
Clc1ccc(C[n+]2cc(-c3ccc(Cl)cc3)n3c2CCC3)cc1	4.75
Clc1ccc(OCCn2ccnc2)c2ccccc12	4.36
OCCNCc1c(OCc2ccc(Cl)cc2)ccc2ccccc12	5.12
